Measurements published in patent publication US5034391A, “Piperazinylalkyl-3(2H)-pyridazinones and the use thereof as agents lowering blood pressure” (CL Pharma Aktiengesellschaft, priority 1988, dated 1991).

Assay: Solubility of the isolated salt in water (remark in the preparation examples)
Assay type: physicochemical
Conditions: hydrochloride / dihydrochloride salt

SMILES	solubility in water
COc1ccccc1N1CCN(CCCCCCNc2cnn(C)c(=O)c2Cl)CC1 [2-Methyl-4-chloro-5-((6-(4-(2-methoxyphenyl)-1-piperazinyl)hexyl)amino)-3(2H)-pyridazinone]	soluble in water
Cc1cccc(C)c1N1CCN(CCNc2cnn(C)c(=O)c2Cl)CC1 [2-methyl-4-chloro-5-((2-(4-(2,6-dimethylphenyl)-1-piperazinyl)ethyl)amino)-3(2H)-pyridazinone]	readily soluble in water
Cc1cccc(C)c1N1CCN(CCNc2c(Cl)cnn(C)c2=O)CC1 [2-methyl-5-chloro-4-((2-(4-(2,6-dimethylphenyl)-1-piperazinyl)ethyl)amino)-3(2H)-pyridazinone]	readily soluble in water
COc1ccccc1N1CCN(CCCCCCNc2c(Cl)cnn(C)c2=O)CC1 [2-methyl-5-chloro-4-((6-(4-(2-methoxyphenyl)-1-piperazinyl)hexyl)amino)-3(2H)-pyridazinone]	soluble in water
